Values quoted from earlier work in patent US20110028639A1, “ROOM TEMPERATURE VULCANIZABLE POLYMERS” (HONEYWELL INTERNATIONAL, INC., priority 2007, published 2011).

Test system: males rats

Q: For CC(C)=NO [acetone oxime], which tumors in rats is on record?
A: The tumors in rats was “cause tumors”.
